In patent US7659277B2, “Ubiquitin ligase inhibitors and methods related thereto” (Proteologies, Ltd., priority 2003, dated 2010):

Target: T1, POSH (Homo sapiens, UniProt Q7Z6J0)
T1 construct: GST-POSH lot NB81/p.118 3.6 mg/ml; fused on or other part: GST tag, used for detection with anti-GST XL665
T1 sequence (Q7Z6J0 1-269 limits assumed): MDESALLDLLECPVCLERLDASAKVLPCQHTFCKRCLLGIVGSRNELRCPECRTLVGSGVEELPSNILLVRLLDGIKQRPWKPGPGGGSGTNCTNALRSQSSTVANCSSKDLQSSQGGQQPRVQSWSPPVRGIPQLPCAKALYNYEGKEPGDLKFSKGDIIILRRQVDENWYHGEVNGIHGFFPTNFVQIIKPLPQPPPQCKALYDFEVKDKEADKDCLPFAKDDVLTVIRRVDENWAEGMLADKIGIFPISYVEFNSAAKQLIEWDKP
Assay: IC50 assay procedure: GST-POSH auto-ubiquitination, homogeneous time-resolved fluorescence (Ub-cryptate / anti-GST XL665)
Format: biochemical
Settings: ubiquitin ligase activity of POSH; GST-POSH 33 nM, 30 min preincubation
Text: In certain preferred embodiments, agents that inhibit (or promote) the ubiquitin ligase activity of a ubiquitin ligase, such as POSH, may be identified using a homogenous time resolved fluorescence assay. Such an assay may employ a GST fused to the RING subunit of a ubiquitin ligase (e.g. POSH). Two flurophore-conjugated detection reagents are also used: anti-GSTXL665 and europium cryptate labeled ubiqutin. The ubiqutination of the ubiquitin ligase by ubiqutin cryptate and binding of the anti-GST tagged XL665 brings the fluorophores into close proximity allowing FRET reaction to occur. Accordingly, FRET serves as a measurement of ubiquitination of the ubiquitin ligase. An enzymatic system may be set up to provide activated ubiquitin, e.g., by providing ubiquitin, an E1 and an E2. Compounds that will not allow the FRET reaction are considered to be inhibitors.
Step 3: establish IC 50 value measurements.
Experimental Protocols: 1. HTS Screening Assay Procedure • Microplates 10109D to 10114D compounds at 1 mM. • (Controls in column 1). • All compounds were perchase from ChemBridge corporation: ChemBridge corporation 16981 Via Tazon, Suite G San Diego, Calif. 92127 a. Microplates Labeling • Put labels to 6 PS U-bottom clear microplate. • Put labels to 18 black microplates (triplicats). b. Microplates Preparation • Put 100 μl GST-POSH at 33 nM in wells of the clear PS U-bottom microplates (exept wells A1-D1). • Negative control: place 100 μl dH2O in wells A1-D1. • (Positive control: place 100 μl GST-POSH at 33 nM in wells E1-H1). • Put 8 μl enzymes solution ×4 to black microplates (column 1 to 11). c. Incubation of E3 with Compounds • Transfer 5 μl of compounds (at 1 mM) to the microplates containing 100 μl GST-POSH. • Add 5 μl of DMSO to controls column 1. • Incubation 30 minutes at RT. d. Enzymatic (Ubiquitination) and Final Steps • Distribution of (triplicate) 3×23 μl incubated compounds into 3 black microplates containing enzymatic solution (on splitting apparatus). • Incubation 30 minutes at 37° C. • Addition of 8 μl EDTA 0.5 M. • Incubation 15 (at least) minutes at RT. • Addition of 30 μl GST XL 665 in reconstitution buffer. • Incubation 45 (at least) minutes at RT. • Reading fluorescence. • Record results in computer. • Put sealing foil back on original and diluted microplates and keep at −70° C. • Always the plates must be closed with lids during each step. 2. […] Microplates Labeling • Put labels to 4 clear PP clear microplate (18.2 μM, 9.1 uM, 1.82 uM, 910 nM,). • Put labels to 5 clear PS U-bottom clear microplate 4.44 μM, 909, 444, 91 and 44 nM) • Put labels to 15 black microplates (triplicates). f. Original Microplate Dilutions • Put DMSO 40 μl to (18.2 μM, 1.82 uM plates) and 20 ul to (9.1 uM, 910 nM plates. • Mix by pipetation the original microplate (3× up and down 45 μl). • Transfer 10 μl of compounds from the original microplate (at 91 μM) to the next microplate (=18.2 μM) on splitting apparatus. • Mix by pipetation the 18.2 uM microplate (3× up and down 45 μl). • Transfer 20 μl of compounds from the 18.2 uM microplate to the next microplate (=9.1 μM) on splitting apparatus. • Mix by pipetation the 9.1 uM microplate (3× up and down 45 μl). • Transfer 10 μl of compounds from the 9.1 uM microplate to the next microplate (=1.82 μM) on splitting apparatus. • Mix by pipetation the 1.82 uM microplate (3× up and down 45 μl). • Transfer 20 μl of compounds from the 1.82 uM microplate to the next microplate (=910 nM) on splitting apparatus • Mix by pipetation. g. Microplates Preparation • Put 123 μl GST-POSH at 33 nM in wells of the 5 clear PS U-bottom clear microplates. • Positive control: place 123 μl GST-POSH at 33 nM in well A12-h12 13 μl DMSO. • Negative control: place 123 μl dH2O in well B1 and 13 μl DMSO. • Put 8 μl enzymes solution ×4 to 15 black microplates. • Controls: put 8 μl enzymes solution ×4 to wells A1 to F1. h. […]

| SMILES | IC50 [µM] |
| --- | --- |
| COc1ccc(N2C(=O)NC(=O)/C(=C\c3ccc(Cl)cc3)C2=O)cc1 [Compound 7] | 1 |
| O=C1C=CC(=O)N1c1ccccc1Cl [Compound 18] | 0.7 |
| S=C(c1ccc(-c2cc(Cl)ccc2Cl)o1)N1CCCCC1 [Compound 35] | 0.5 |
| Cc1c(C(=O)/C=C/c2ccccc2)c2cc(O)ccc2n1C [Compound 75] | 0.4 |
| COc1ccc(NC(=O)c2cc3cccc(N)c3cc2O)cc1 [Compound 114] | 0.3 |
| CN1C(=O)/C(=C\c2ccc(-c3cccc([N+](=O)[O-])c3)o2)SC1=S [Compound 115] | 0.6 |
| N/N=C\c1ccc(-c2cccs2)s1 [Compound 37] | 1 |
| O=[N+]([O-])c1ccc2c(c1)Cc1cc(/N=C/c3ccc(Br)cc3)ccc1-2 [Compound 67] | 1 |
| C=CCN1C(=O)NC(=O)/C(=C/c2ccc(F)cc2)C1=O [Compound 12] | 1 |
| O=C1CC(NNc2ccccc2)C(=O)N1c1cccc(Cl)c1 (stereo not drawn) [Compound 22] | 0.9 |
| O=c1/c(=C/c2ccc(N3CCOCC3)cc2)sc2nc3ccccc3n12 [Compound 32] | 0.5 |
| O=C1C=CC(=O)N1c1ccc(Cl)cc1 [Compound 19] | 0.7 |
| Cc1ccc2nc(-c3ccc(/N=C/c4ccc([N+](=O)[O-])s4)cc3)sc2c1 [Compound 72] | 0.8 |
| CCCCOc1ccc(NC(=S)N2CCn3c4c(c(=O)c5cc(C)ccc53)CCC42)cc1 (stereo not drawn) [Compound 81] | 0.1 |
| COc1ccccc1/C=C1\N=C(c2ccccc2Cl)OC1=O [Compound 49] | 1 |
| Cc1ccc(/N=C/c2cc(Br)cc(Br)c2O)c(C)c1 [Compound 54] | 0.5 |
| O=C1C=CC(=O)N1c1cc(Cl)cc(Cl)c1 [Compound 23] | 0.2 |
| COc1cc(N/C=C2/C(=O)NC(=S)N(c3cccc(C)c3)C2=O)cc(OC)c1 [Compound 16] | 1 |
